Results on three compounds are retold here after patent US20080214509A1, “Methods for enhancing the efficacy of vascular disrupting agents” (priority 2007, published 2008).

SMILES strings stand for the structures.

Experiment [1] concerns MeWo human melanoma cells. Description: MeWo melanoma tumors (500 mm^3) in nude mice: SDF-1/CXCR4 staining, necrosis, hypoxia, perfusion. The class given is in vivo. The following applies: day 4. Here is the method:
MeWo human melanoma cells were implanted subdermally in nude mice. When tumors reached 500 mm^3, treatment with CA1P, AMD-3100 or the combination of the two drugs was initiated. CA1P was given as a single injection and AMD-3100 was given in a concentration of 5 mg/kg for 3 sequential days. On day 4, mice were sacrificed and tumors harvested for evaluation of the expression of human SDF-1 and mouse CXCR4, as well as tumor necrosis, hypoxia and vessel perfusion.
Longitudinal tumor sections were stained for either SDF-1 or mouse CXCR4 expression.
FIG. 2 provides a statistical quantification of the relative necrosis area in all tumors from treated and untreated mice. Hypoxic tumor area and perfused tumor area was also measured for all treated and untreated tumors using pimonidazole and Hoechst staining respectively (see FIG. 3).

In the next experiment the test system is CEPs. Put plainly: Circulating endothelial progenitor cell (CEP) levels in peripheral blood by flow cytometry, non-tumor bearing mice. In kind it is in vivo. As to conditions: non-tumor bearing Balb/c mice; AMD-3100 5 mg/kg, CA1P 100 mg/kg; 4 hours or 24 hours post-treatment; FIG. 1. Here is the method: Non-tumor bearing Balb/c mice (8-10 weeks old) were treated with one of the following agents: (i) 5 mg/kg of AMD-3100, a specific CXCR-4 antagonist; (ii) 100 mg/kg of CA1P, a VDA; or (iii) a combination of AMD-3100 and CA1P. At either 4 hours or 24 hours post-treatment, mice were bled from the retro-orbital sinus to evaluate levels of CEPs by flow cytometry.

Experiment [2] has as its system Lewis-Lung Carcinoma (LLC) cells. Put plainly: Lewis-Lung Carcinoma tumors in irradiated mice transplanted with GFP+ bone marrow: necrosis and bone marrow cell incorporation. The class given is in vivo. As to conditions: LLC tumors in C57Bl mice with GFP+ bone marrow; day 4. Here is the method: To assess the incorporation of bone marrow proangiogenic cells to the tumor site, Lewis-Lung Carcinoma (LLC) cells were implanted into the flanks of lethally irradiated C57Bl mice that were previously transplanted with GFP+bone marrow tagged cells. When tumors reached 500 mm^3, treatment with CA1P, AMD-3100 or the combination of the two was initiated. AMD-3100 was given in a concentration of 5 mg/kg for 3 sequential days. On day 4, mice were sacrificed and tumors removed for the evaluation of bone marrow derived cell (GFP+ cells) invasion and incorporation into tumor blood vessels (CD31+ cells). Tumors were also evaluated for necrosis by green fluorescence, as necrotic tissue is auto-fluorescent under GFP (fluorescent) channel.

Experiment [3] relates to SDF-1. Put plainly: Plasma SDF-1 by ELISA in nude mice after VDA treatment. In kind it is in vivo. As to conditions: both tumor-free and 500 mm^3 MeWo tumor-bearing nude mice; 4 hours after treatment. Here is the method: To investigate the possibility that systemic induction of SDF-1 is involved in the acute mobilization of CEPs by VDA treatment, plasma from non-tumor or 500 mm^3 MeWo human melanoma bearing nude mice obtained 4 hours after treatment with CA1P was analyzed for human and mouse SDF-1 using specific ELISAs. From this analysis, it was determined that an acute 2 fold increase in SDF-1 occurs in both tumor-free and tumor-bearing nude mice following CA1P treatment. […] Thus, there is a rapid host proangiogenic reaction in response to VDA treatment similar to that observed in mice.

The test system of experiment [4] is SDF-1. Put plainly: Clinical data from cancer patients with advanced solid tumors treated with a VDA. The class given is in vivo, human. As to conditions: 12 cancer patients with advanced solid tumors; 4 hours after treatment.
The mark [5] stands for this setting: MeWo tumors, CA1P single injection, AMD-3100 5 mg/kg for 3 sequential days.

For `COc1cc(/C=C\c2ccc(OC)c(OP(=O)(O)O)c2OP(=O)(O)O)cc(OC)c1OC` [CA1P, combretastatin A-1 diphosphate], in experiment [1] (MeWo tumor sections), the “human SDF-1 levels in tumors” value is listed as “upregulation” and the “invasion of mouse CXCR4+ cells to the tumor site” value is reported as “invasion of mouse CXCR4+ cells to the tumor site”. In experiment [1] (setting [5]), the “tumor hypoxia (pimonidazole staining)” value is listed as around 12%, the “tumor necrosis (area of total tumor area)” value was around 30% and the “tumor perfusion (Hoechst staining)” value is around 7%. In the experiment on CEPs, the “CEP levels in peripheral blood” value was “rapid and significant increases”. For the same compound, in experiment [2], the “bone marrow derived (GFP+) cell homing to tumor site and incorporation into tumor blood vessels (CD31+)” value was “recruits bone marrow derived proangiogenic cells to tumors”. Also, the “increase in plasma SDF-1” value in the experiment on SDF-1 [3] stood at 2 fold.
In the case of `COc1ccc(/C=C\c2cc(OC)c(OC)c(OC)c2)cc1OP(=O)(O)O` [CA4P, combretastatin A-4 phosphate], in the experiment with SDF-1 [4], the “circulating SDF-1 plasma levels” value is “substantially increased”; the “number of CD133 and CD34 positive cells” value is “substantially increased”.
For the compound `c1cc(CN2CCCNCCNCCCNCC2)ccc1CN1CCCNCCNCCCNCC1` [AMD-3100, 1,1′-[1,4-phenylenebis(methylene)]-bis-1,4,8,11-tetra-azacyclotetradecane], in the experiment with CEPs, the “CEP levels in peripheral blood” value is “rapid and significant increases”.
